This is an account of results in paper PMC12261233, “Photoactivatable Cyclometalated Ir(III) Compound Penetrates the Blood-Brain Barrier in 3D Spheroidal and Advanced 3D Organoid Models of Inherently Resistant and Aggressive Brain Tumors” (ACS Pharmacology & Translational Science, 2025).

One data set relates to U87MG spheroids. Briefly: Morphology and diameter of spheroids after treatment and irradiation (phase contrast). Format: cell-based, human. The following applies: 90 min treatment, 30 min blue light, 70 h drug-free incubation. The protocol: We further investigated the effects of treatment and irradiation on tumor spheroids by analyzing the morphology and diameter of spheroids from the U87MG cell line. Morphogenic parameters were assessed using phase contrast microscopy at 24-h intervals during the preformation phase and post-treatment, culminating at 144 h. Initial mean diameters of the spheroids were 280 ± 11 μm, increasing to 550 μm after 70 h of drug-free incubation. U87MG spheroids proliferated rapidly. Rapidly growing tumor cells are generally more sensitive to treatment, whereas quiescent tumor cells are moderately sensitive to metal-based compounds.
The spheroid models underwent treatment with varying concentrations of compounds, focusing on equitoxic concentrations during blue light exposure. The analysis included both irradiated and nonirradiated samples to assess nonspecific toxicity under dark conditions. […]
Figure S30. […] Phase contrast microphotographs were obtained for spheroids generated from U87MG cells (panel A), and the respective mean diameters were analyzed and shown in panel B for U87MG spheroids. […] Mean diameters for dark-incubated samples were analyzed at the same concentrations as those for irradiated samples to assess the impact of irradiation. […]

A further data set deals with hCMEC/D3 cells. Further details: method as in number not printed (footnote c: Data taken from the ref). Conditions: comparison value; ref number not printed (footnote c: Data taken from the ref); cited from earlier work.

For the molecule `CCCCn1c2[n+](c3cc(C(=O)OC)ccc31)[Ir-3]13([Cl])([c]4ccccc4-2)[n+]2ccccc2-c2cc(-c4ccc(C)cc4)cc([n+]21)-c1cccc[n+]13.F[P-](F)(F)(F)(F)F` [Ir4], in the data set on U87MG spheroids, the “effect on spheroid diameter / growth” value is reported as “spheroid diameters decreased below their initial size”. On to `Cn1nnc2c(C(N)=O)ncn2c1=O` [Temozolomide, reference compound], for which the P app in the data set on hCMEC/D3 cells was 0.36 × 10^–4 cm·s^–1.
